{"source": "patent US10130611B2", "about": "“Use of benzo-heterocycle derivatives for preventing and treating cancer or for inhibiting cancer metastasis” (MEDICINAL BIOCONVERGENCE RESEARCH CENTER, priority 2009, dated 2018)", "key": {"[1]": {"tested_on": "Mouse mammary carcinoma 4T-1 cells", "experiment": "In vivo cancer metastasis experiment", "design": "species or system Balb/c mice", "settings": "mice, 30 mg/kg once a day for 3 weeks", "experimental": "On MMP2 activity (FIG. 37) and cell migration (FIGS. 38 and 39), KL1-dose-dependent effect was measured. For the test on the cell migration, the cells were treated with KL1 for 8 hours. In FIG. 40, in order to see the effect of KL1 on protein synthesis of cells, A549 cells were treated with KL1 at indicated concentrations, and starved in methionine-free medium. Then, [^35S] methionine was added thereto for 2 hours. Then, the cells were incubated in complete medium for 4 hours, and the level of added methionine was measured by a scintillation counter. In FIG. 41, KL1-dose-dependent cytotoxicity was measured by using A549 cells. In FIG. 42, the effect of KL1 on cancer metastasis was measured according to the method as described above. In each group, 6 mice were included, and KL1 was abdominally injected for 3 weeks, in a dose of 30 mg/kg once a day. Then, the mice were sacrificed. The metastasized tumor nodules over 1 mm in diameter were counted, and their average was calculated (left). […]\nMouse mammary carcinoma 4T-1 cells were transfected with si-KRS, si-DRS or si-control, and incubated for 24 hours. […] The growth of a tumor was monitored by measuring a tumor size three times per week. The whole body weights were also simultaneously measured. […] The number and size of metastatic tumor nodules in lungs were measured, and tumor nodules of larger than 1 mm in diameter were separately recorded. […]"}, "[2]": {"tested_on": "A549 cells", "experiment": "Western blotting of 67LR and 37LRP levels in A549 cells", "format": "cell-based, human", "settings": "KL1 in different amounts", "experimental": "As a control, an OD level of cells treated with DMSO was measured. FIG. 32 is a photograph showing cell growth in wells containing yeast cells having indicated interaction pairs in the presence or absence of CAND-KL1. In FIG. 33, in 293 cells, through co-immunoprecipitation, the KL1-dose-dependent effect on the interaction between KRS and 67LR was tested. The cells were treated with KL1 for 3 hours, 67LR was immunoprecipitated, and co-precipitation of KRS was determined by western blotting. In FIG. 34, in the presence of KL1 in indicated levels, a laminin receptor labeled with radioisotope was mixed with GST-KRS (1 μg). GST-KRS was precipitated with glutathione-Sepharose beads, and co-precipitated laminin receptor was detected with autoradiography. In FIG. 35, in A549 cells, the effect of KL1 on the intracellular level of 67LR and 37LRP was tested with western blotting. […] GST-KRS was immobilized on a CM5 Sensor Chip, and the binding was measured by a resonance unit (RU) at indicated concentrations (indicated by different colors). […]\nFrom among the compounds, the inventors also examined whether the compound represented by Formula 15 (indicated by CAND-KL1, and KL1) can inhibit the intracellular interaction between KRS and 67LR. […] Then, 67LR was immunoprecipitated with its antibody, and co-immunoprecipitation of KRS was determined. […]"}}, "note": "Entries after “also recorded” stand apart in the source; their conditions may differ.", "data": [{"molecule": "CCC(C(=O)O)n1/c(=N/C(=O)c2ccc(C)cc2)sc2ccccc21", "note": "(stereo not shown) [Compound of formula 15, 2-[2-(4-Methyl-benzoylimino)-benzothiazol-3-yl]-butyric acid]", "values": [{"measurement": "number of metastasized nodules", "setting": "[1]; abdominally injected, lung nodules over 1 mm in diameter", "value": "significantly reduced"}, {"measurement": "primary tumor growth (weight and size)", "setting": "[1]; KL1 treated vs non-treated group, listed as KL1, 30 mg/kg", "value": "no significant difference in weight and size; also recorded: did not affect"}, {"measurement": "cytoplasmic 37LRP level", "setting": "[2]", "value": "no effect"}, {"measurement": "intracellular level of 67LR", "setting": "[2]", "value": "decreased by the amount of added KL1"}]}]}
